Measured values: the supplement of paper PMC6045584
± gives the standard deviation of the averaged measurements.

Legend:
FORETINIB = compound: COc1cc2c(Oc3ccc(NC(=O)C4(C(=O)Nc5ccc(F)cc5)CC4)cc3F)ccnc2cc1OCCCN1CCOCC1 [FORETINIB]; assay: surviving fraction relative to DMSO-only wells; higher = less growth inhibition; settings: exposure time: 5 days
Outline: (§1)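 After seeding at 250–500 cells per well in 384-well plates and a 24-hour wait, log-phase tumour cell lines were exposed without interruption for five days to inhibitors at 0.5, 1, 5, 10, 50, 100, 500 and 1000 nM. CellTiter-Glo luminescence was recorded after 10 minutes at room temperature. Viability is reported as surviving fraction, the luminescence normalised to the median of DMSO-only wells.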

MLN-4924 = compound: NS(=O)(=O)OC[C@@H]1C[C@@H](n2ccc3c(N[C@H]4CCc5ccccc54)ncnc32)C[C@@H]1O [MLN-4924]; assay: as above; settings: exposure time: 5 days
Outline: as §1

Row | Test System | surviving fraction (FORETINIB; 0.5 nM) | surviving fraction (FORETINIB; 1 nM) | surviving fraction (FORETINIB; 5 nM) | surviving fraction (FORETINIB; 10 nM) | surviving fraction (FORETINIB; 50 nM) | surviving fraction (FORETINIB; 100 nM) | surviving fraction (FORETINIB; 500 nM) | surviving fraction (FORETINIB; 1000 nM) | surviving fraction (MLN-4924; 0.5 nM) | surviving fraction (MLN-4924; 1 nM) | surviving fraction (MLN-4924; 5 nM) | surviving fraction (MLN-4924; 10 nM) | surviving fraction (MLN-4924; 50 nM) | surviving fraction (MLN-4924; 100 nM) | surviving fraction (MLN-4924; 500 nM) | surviving fraction (MLN-4924; 1000 nM)
1 | HCC1395 BREAST | 1.07 ± 0.09 | 1.08 ± 0.11 | 1.26 ± 0.076 | 1.17 ± 0.048 | 1.09 ± 0.083 | 1.02 ± 0.034 | 0.939 ± 0.063 | 0.796 ± 0.085 | 1.07 ± 0.042 | 1.13 ± 0.05 | 1.01 ± 0.14 | 1.15 ± 0.14 | 1.1 ± 0.014 | 1.083 ± 0.008 | 0.989 ± 0.1 | 1.01 ± 0.053
2 | SG31 HEADNECK | 1.38 ± 0.16 | 1.41 ± 0.11 | 1.1 ± 0.18 | 1.09 ± 0.21 | 0.969 ± 0.14 | 1.12 ± 0.11 | 1.02 ± 0.17 | 0.898 ± 0.087 | 1.21 ± 0.15 | 1.37 ± 0.22 | 1.06 ± 0.24 | 1.12 ± 0.14 | 0.671 ± 0.12 | 0.553 ± 0.062 | 0.247 ± 0.0062 | 0.198 ± 0.034
3 | SKBR3 BREAST | 1.11 ± 0.02 | 1.14 ± 0.15 | 1.08 ± 0.063 | 1.08 ± 0.15 | 1.13 ± 0.066 | 0.982 ± 0.064 | 0.886 ± 0.065 | 0.868 ± 0.11 | 1.01 ± 0.067 | 1.06 ± 0.12 | 1.11 ± 0.083 | 1.01 ± 0.062 | 0.187 ± 0.015 | 0.14 ± 0.01 | 0.159 ± 0.017 | 0.175 ± 0.011
4 | MDAMB361 BREAST | 0.794 ± 0.035 | 0.877 ± 0.15 | 0.803 ± 0.05 | 1.18 ± 0.11 | 0.9 ± 0.15 | 0.798 ± 0.021 | 0.918 ± 0.1 | 0.918 ± 0.073 | 0.894 ± 0.12 | 0.785 ± 0.028 | 0.829 ± 0.051 | 0.853 ± 0.1 | 0.735 ± 0.048 | 0.736 ± 0.061 | 0.594 ± 0.03 | 0.549 ± 0.042
5 | ASKA SYNOVIAL | 1.11 ± 0.065 | 1.14 ± 0.037 | 1.06 ± 0.085 | 1.07 ± 0.075 | 1.13 ± 0.042 | 1.03 ± 0.044 | 0.371 ± 0.026 | 0.297 ± 0.0071 | 1.11 ± 0.025 | 1.01 ± 0.02 | 1.08 ± 0.14 | 1.151 ± 0.011 | 0.946 ± 0.18 | 0.486 ± 0.08 | 0.33 ± 0.04 | 0.348 ± 0.019
6 | SG28 HEADNECK | 1.04 ± 0.07 | 1.15 ± 0.12 | 1.12 ± 0.077 | 0.972 ± 0.011 | 1.02 ± 0.054 | 0.941 ± 0.054 | 0.826 ± 0.023 | 0.512 ± 0.046 | 1.16 ± 0.16 | 1.16 ± 0.03 | 1.153 ± 0.0099 | 1.1 ± 0.032 | 0.726 ± 0.076 | 0.614 ± 0.1 | 0.296 ± 0.024 | 0.24 ± 0.0099
7 | SCC003 HEADNECK | 1.09 ± 0.068 | 1.14 ± 0.033 | 1.12 ± 0.074 | 1.11 ± 0.038 | 1.04 ± 0.066 | 1.06 ± 0.088 | 0.912 ± 0.046 | 0.485 ± 0.0087 | 1.14 ± 0.039 | 1.1 ± 0.016 | 1.11 ± 0.028 | 1.11 ± 0.048 | 1.11 ± 0.14 | 0.988 ± 0.041 | 0.526 ± 0.037 | 0.375 ± 0.037
8 | SIHA CERVIX | 1.12 ± 0.02 | 1.18 ± 0.04 | 1.09 ± 0.046 | 1.09 ± 0.081 | 1.01 ± 0.066 | 1.01 ± 0.031 | 0.667 ± 0.019 | 0.523 ± 0.0076 | 1.04 ± 0.11 | 1.07 ± 0.057 | 1.16 ± 0.099 | 1.22 ± 0.092 | 0.81 ± 0.086 | 0.611 ± 0.077 | 0.377 ± 0.021 | 0.312 ± 0.026
9 | SYO1 SYNOVIAL | 0.989 ± 0.038 | 0.971 ± 0.05 | 0.929 ± 0.026 | 0.914 ± 0.027 | 0.821 ± 0.013 | 0.749 ± 0.028 | 0.25 ± 0.0099 | 0.189 ± 0.026 | 0.996 ± 0.05 | 0.996 ± 0.029 | 1.01 ± 0.039 | 0.992 ± 0.03 | 0.65 ± 0.019 | 0.334 ± 0.028 | 0.0614 ± 0.0023 | 0.0519 ± 0.0031
10 | RDES SOFT TISSUE | 1.31 ± 0.058 | 1.25 ± 0.13 | 1.17 ± 0.088 | 1.07 ± 0.065 | 0.989 ± 0.12 | 0.892 ± 0.092 | 0.226 ± 0.013 | 0.106 ± 0.0059 | 1.24 ± 0.12 | 1.11 ± 0.22 | 1.29 ± 0.17 | 1.26 ± 0.081 | 0.952 ± 0.018 | 0.687 ± 0.067 | 0.0467 ± 0.0025 | 0.0413 ± 0.0021
11 | SG43 HEADNECK | 1.03 ± 0.26 | 0.918 ± 0.14 | 0.678 ± 0.063 | 0.732 ± 0.032 | 0.727 ± 0.15 | 0.883 ± 0.12 | 0.545 ± 0.11 | 0.247 ± 0.076 | 1.15 ± 0.29 | 1 ± 0.32 | 1.02 ± 0.26 | 1.15 ± 0.18 | 0.885 ± 0.19 | 1.11 ± 0.15 | 0.463 ± 0.094 | 0.223 ± 0.087
12 | MCF7 BREAST | 0.938 ± 0.026 | 0.958 ± 0.056 | 0.972 ± 0.031 | 0.993 ± 0.057 | 0.908 ± 0.052 | 0.959 ± 0.0097 | 0.669 ± 0.055 | 0.701 ± 0.066 | 0.889 ± 0.029 | 0.9226 ± 0.0022 | 0.935 ± 0.013 | 0.975 ± 0.027 | 0.641 ± 0.063 | 0.448 ± 0.062 | 0.265 ± 0.026 | 0.235 ± 0.016
13 | HELA CERVIX | 1.09 ± 0.037 | 1.05 ± 0.091 | 1.1 ± 0.039 | 1.05 ± 0.052 | 1.14 ± 0.11 | 1.15 ± 0.042 | 0.659 ± 0.073 | 0.07233 ± 0.00058 | 1.12 ± 0.038 | 1.07 ± 0.06 | 1.1 ± 0.052 | 1 ± 0.022 | 1.16 ± 0.086 | 1.17 ± 0.1 | 0.718 ± 0.055 | 0.611 ± 0.027
14 | VP229 BREAST | 1.31 ± 0.085 | 1.09 ± 0.11 | 1.13 ± 0.14 | 1.07 ± 0.1 | 1.14 ± 0.11 | 1.05 ± 0.15 | 0.808 ± 0.14 | 0.616 ± 0.15 | 1.07 ± 0.16 | 1.08 ± 0.19 | 1.17 ± 0.028 | 1.14 ± 0.22 | 1.04 ± 0.033 | 0.891 ± 0.12 | 0.233 ± 0.082 | 0.127 ± 0.022
15 | 143B BONE | 1.05 ± 0.046 | 1.03 ± 0.033 | 1.04 ± 0.015 | 1.02 ± 0.05 | 1.01 ± 0.0099 | 1.038 ± 0.0035 | 0.86 ± 0.015 | 0.755 ± 0.03 | 1.03 ± 0.023 | 1.01 ± 0.034 | 1.04 ± 0.033 | 1.018 ± 0.0099 | 0.961 ± 0.042 | 0.699 ± 0.028 | 0.062 ± 0.0042 | 0.033 ± 0.0028
16 | 22RV1 PROSTATE | 1.02 ± 0.065 | 1.04 ± 0.033 | 0.98 ± 0.15 | 0.984 ± 0.043 | 0.965 ± 0.12 | 0.99 ± 0.17 | 0.611 ± 0.061 | 0.511 ± 0.015 | 1.07 ± 0.05 | 0.967 ± 0.15 | 1.03 ± 0.12 | 0.81 ± 0.1 | 0.653 ± 0.048 | 0.47 ± 0.055 | 0.283 ± 0.058 | 0.26 ± 0.13
